Laboratory results reported in publication PMC6384922, “Potent in Vitro α-Glucosidase Inhibition of Secondary Metabolites Derived from Dryopteris cycadina” (Molecules, 2019).
“And” between values parts separate entries of the source, which are not always exact repeats. Equal values may be shown once. Read-outs that look alike come from different tables or passages of the source.

What was measured:
[1] = target: T1, α-glucosidase (EC3.2.1.20) (Saccharomyces cerevisiae, UniProt P07265); experiment: biochemical; conditions: for IC50: α-glucosidase, mean ± SEM of three independent readings; for inhibition at 500 µM: read-out: maximum α-glucosidase inhibitory activity (% inhibition)
T1 construct: purchased Sigma Aldrich
T1 sequence (P07265 whole entry): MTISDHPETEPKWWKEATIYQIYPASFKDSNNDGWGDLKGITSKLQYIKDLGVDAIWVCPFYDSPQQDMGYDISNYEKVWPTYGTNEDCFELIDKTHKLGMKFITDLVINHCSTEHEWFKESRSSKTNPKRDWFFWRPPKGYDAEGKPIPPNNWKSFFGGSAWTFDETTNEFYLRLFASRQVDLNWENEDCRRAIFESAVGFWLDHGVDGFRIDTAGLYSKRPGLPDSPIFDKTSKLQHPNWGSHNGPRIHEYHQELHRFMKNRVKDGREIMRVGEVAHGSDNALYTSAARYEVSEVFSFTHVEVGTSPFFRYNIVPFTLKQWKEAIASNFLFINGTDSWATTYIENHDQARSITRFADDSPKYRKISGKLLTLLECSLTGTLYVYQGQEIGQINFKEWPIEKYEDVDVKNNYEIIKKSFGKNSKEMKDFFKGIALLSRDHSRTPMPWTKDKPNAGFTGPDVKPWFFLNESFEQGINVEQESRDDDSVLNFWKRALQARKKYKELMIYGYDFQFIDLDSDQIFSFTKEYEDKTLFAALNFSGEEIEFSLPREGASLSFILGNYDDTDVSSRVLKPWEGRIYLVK
Protocol: The α-glucosidase (Saccharomyces cerevisiae) inhibitory assay was carried out with slight modifications according to the method described in [21, 26, 27]. For the evaluation of α-glucosidase inhibitory activity, 10 µl of freshly prepared phosphate buffer (pH 6.8) were plated in triplicate for a micro-well plate with the help of a micropipette. Then, 30 µL of α-glucosidase enzyme with a concentration of 0.017 units/mL of 70% ethanol and 10 µL of test compound solution were added to the same well plate. The plates were then incubated for 15 min at 37 °C and an initial reading was taken at 405 nm using the ELISA micro plate reader. Furthermore, 100 µl of 0.7mM PNPG substrate was added to each well of the plate and again incubated at 37 °C for 30 min, forming a yellow color. The final reading was taken again at λ max 405 nm using the ELISA plate reader. […] Each reading was taken in triplicate. The percent inhibition was calculated using the following formula, % inhibition = [(A negative control − A test sample)/A negative control] × 100, where A is absorbance.
The half-maximal inhibitory concentration values were determined using the Graphpad Prism version 7.0 software (San Diego, CA, USA. All values are represented as mean ± SEM.

[2] = target: T1, α-glucosidase (EC3.2.1.20); set-up: method as in PMID 18341288; conditions: cited from earlier work

Row | Structure (SMILES) | IC50 ([1]; IC50 ± SEM) | inhibition at 500 µM [1] [%] | α-glucosidase inhibitory activity in previous studies [2] | IC50 ([1]; read-out: IC50 ± SEM) [µM]
1 | CC[C@H](CC[C@@H](C)[C@H]1CC[C@H]2[C@@H]3CC=C4C[C@@H](O)CC[C@]4(C)[C@H]3CC[C@]12C)C(C)C [Compound 1, β-Sitosterol] | 143 ± 0.47 µM | 92.9 | inactive | –
2 | CCC(CCC(C)C1CCC2C3CC=C4CC(OC5OC(CO)C(O)C(O)C5O)CCC4(C)C3CCC12C)C(C)C [Compound 2, β-Sitosterol3-O-β-D-glucopyranoside] | – | 92 | – | 314 ± 4.58
3 | Cc1ccc(C2Oc3cc(O)cc(O)c3C(=O)C2O)cc1 (stereo not shown) [Compound 3, 3,5,7-trihydroxy-2-(p-tolyl) chorman-4-one] | 136 µM and 133 µM | 94 | – | –
